From US20250302913A1, “LACRIPEP PROMOTES NEUROREGENERATION AND MAINTAINS EPITHELIAL PROGENITOR CELL IDENTITY” (The Regents of The University of California, priority 2022, published 2025)

Legend:
Type in all cases: in vivo, mouse
Aire KO mice = assay: Pilocarpine-stimulated (maximal) tear secretion in Aire KO mice; details: between Aire KO treatment conditions; 4.5 mg/kg pilocarpine i.p.
Excerpt: (§1) We next tested whether lacripep restored basal cell identity and barrier function by reducing immune cell infiltration. Prolonged desiccating stress from reduced tear production elicits an immune response in which activated CD4+ T cells home to the corneal epithelium and stroma (primarily accumulating at the limbal region) to modulate epithelial differentiation (17) and direct the development of autoimmune mediated dry eye (18).
Aire KO female mice aged 5 weeks were used for the study. All mice were topically treated with 5 μL per eye of 4 μM lacripep. Dosing was three times daily for 14 consecutive days. Lissamine green staining assessment and tear secretion assays were performed on each eye before treatment at baseline, 7 days and 14 days post treatment
Mice were anesthetized with isoflurane and basal tear secretion was then measured using a Zone-Quick phenol red thread (as indicated by the length of the tear-absorbed region in 15 seconds). Stimulated tear secretion was measured after 4.5 mg/kg of pilocarpine diluted in saline was injected into the peritoneum (i.p.). Ten minutes later, mice were anesthetized with isoflurane and tear secretion was measured using a Zone-Quick phenol red thread (Showa Yakuhin Kako Co. Ltd., Tokyo, Japan).

ZO1 = assay: Immunofluorescent quantification of tight junction protein ZO1 in corneal epithelium; details: day 15; Aire KO cornea
Excerpt: As dry eye results in disruption of ocular surface integrity resulting in cornea barrier dysfunction and, consequently, fluid loss and pathogen invasion (11), we next determined whether lacripep maintains corneal epithelial architecture by analyzing lissamine green uptake at day 7 and 15. […] Restoration of barrier function was further confirmed by analyzing the superficial epithelial layers for the tight junction protein ZO1 which is essential to the structural integrity of the corneal epithelium (12).
Immunohistological and immunofluorescent analyses of cornea and lacrimal gland samples were performed as previously described (8). […]
For immunofluorescent analysis, 7 or 20 μm tissue sections were incubated with the following primary antibodies: mouse anti-ZO1 conjugated to Alexa594 (1:1000, Life Technologies, Cat 339194), rabbit anti-KRT6A (1:800, Cell Signaling, Cat 4912S), chicken anti-KRT14 (1:1500, Santa Cruz, Cat 515882), rat anti-Ki67 (1:200, Biolegend, 652405), rat anti-CD4 (1:200, Santa Cruz), rabbit anti-TUBB3 (1:500, Cell Signaling, Cat 5568S), and rat anti-Ecadherin (1:300, Life Technologies, Cat 131900). Antibodies were detected using Cy2-, Cy3- or Cy5-conjugated secondary Fab fragment antibodies (Jackson Laboratories), and nuclei were stained with Hoechst 33342 (1:3000, Sigma-Aldrich). […]
Quantification of tight junction protein ZO1. […]

KRT14+ basal cells = assay: Basal progenitor identity (KRT14/KRT6A) and proliferation (Ki67) in cornea; details: 2 wks treatment; Aire KO cornea
Excerpt: Although it has been well established that basal progenitor cells (also referred to as transit amplifying cells (13)) undergo mitosis and migration (14) to give rise to the barrier forming suprabasal epithelial and stratified squamous epithelial cells, the impact of dry eye disease on basal cell identity and differentiation remains largely unknown. Thus, we questioned whether basal cell identity was altered in the desiccated cornea through defining the cellular location of KRT6A, a marker of early epithelial cell differentiation in skin (15) and cultured cornea epithelial cells (16). Accordingly, we confirmed that KRT6A marks differentiated corneal epithelial cell types in vivo, as shown by its exclusive expression in KRT14-deficient suprabasal and superficial epithelial cells of healthy cornea at 7 wks of age (FIG. 1G). […] To determine if changes in cell identity alters progenitor cell division, we analyzed the percentage of proliferating K14+ basal cells in treated and untreated corneas. […]
Quantification of corneal epithelial basal progenitor identity and proliferation. The number of basal KRT14+ and KRT14+ KRT6A+ basal epithelial cells were counted in 350 μm sections of central cornea. […] The number of proliferating epithelial progenitors (Ki67+ KRT14+) was presented as a percentage of total KRT14+ cells counted in 350 μm sections of central cornea.

CD4+ T cells = assay: CD4+ T cell infiltration of cornea and lacrimal gland; details: day 15
Excerpt: as §1
For immunofluorescent analysis, 7 or 20 μm tissue sections were incubated with the following primary antibodies: mouse anti-ZO1 conjugated to Alexa594 (1:1000, Life Technologies, Cat 339194), rabbit anti-KRT6A (1:800, Cell Signaling, Cat 4912S), chicken anti-KRT14 (1:1500, Santa Cruz, Cat 515882), rat anti-Ki67 (1:200, Biolegend, 652405), rat anti-CD4 (1:200, Santa Cruz), rabbit anti-TUBB3 (1:500, Cell Signaling, Cat 5568S), and rat anti-Ecadherin (1:300, Life Technologies, Cat 131900). Antibodies were detected using Cy2-, Cy3- or Cy5-conjugated secondary Fab fragment antibodies (Jackson Laboratories), and nuclei were stained with Hoechst 33342 (1:3000, Sigma-Aldrich). Fluorescence was analyzed using a Zeiss LSM 900 confocal microscope or Zeiss Yokogawa Spinning disk confocal microscope with images assessed using NIH ImageJ software, as described below.
Quantification of CD4+ T cells in cornea and Lacrimal gland. […]

## Ac-KQFIENGSEFAQKLLKKFSLLKPWA-NH2 [lacripep, amino terminus acetylated, carboxyl terminus aminated]
Aire KO mice
  maximal tear secretion in response to pilocarpine: no difference
ZO1
  ZO1 expression in superficial epithelial layers: mimicked that of WT controls
KRT14+ basal cells
  basal cell identity (KRT6A in KRT14+ basal cells): returned to that of WT tissue
CD4+ T cells; Aire KO corneas regardless of treatment
  CD4+ T cell infiltration of cornea: extensively infiltrated by CD4+ T cells
CD4+ T cells; Aire KO lacrimal glands regardless of treatment
  CD4+ T cell infiltration of lacrimal glands: extensively infiltrated by CD4+ T cells
